# Test results from patent US9061077B2 (Emory University, priority 2008, dated 2015).
# Values joined by “and” are separate entries in the source; they are usually repeats but may differ in a detail not shown here. Equal entries are not always repeated. Where two headings read alike, the source gives them in different places.
# Assays:
# [1] = Safety in healthy volunteers (vital signs, CBC, chemistry panel, urinalysis); assay type: in vivo, human; settings: about 74 MBq, pre- and 24 hr post-injection
# Source text: Five healthy volunteers (3 male, 2 females; mean age±SD, 39.4±12.7 yrs; range 20-55 yrs) participated in this study. Inclusion criteria required the absence of any history of kidney and bladder diseases and a normal review of systems. Pregnancy was excluded in females by means of a urine pregnancy test.
# [2] = Plasma clearance in healthy volunteers (single injection, two-compartment model); assay type: in vivo, human; settings: normal volunteers (n=5), individual values and mean
# Source text: Inclusion criteria required the absence of any history of kidney and bladder diseases and a normal review of systems. Pregnancy was excluded in females by means of a urine pregnancy test.
# red blood cells [3] = test: Red cell uptake in healthy volunteers; assay type: in vitro ADME, human; settings: normal volunteers, individual values and mean
# [4] = cited from earlier work
# [5] = Cysteine and histidine challenge at 37 C (HPLC); settings: 0.1 M cysteine and histidine, 4 h, listed as Na2[^99mTc(CO)3(NTA)]
# Experimental: (§4) The buffered solution was evaluated by HPLC at 24 h to assess stability. […] (0.1 mL) were mixed with 0.1 M solutions of histidine and cysteine (0.9 mL) and incubated at 37° C.; aliquots were analyzed by HPLC at 1, 2 and 4 h to evaluate decomposition.
# [6] = Comparison of renal tracer clearances in human subjects relative to PAH (FIG. 4)
# [7] = In vitro stability in physiological phosphate buffer pH 7.4 (HPLC); settings: phosphate buffer pH 7.4, 24 h, listed as Na2[^99mTc(CO)3(NTA)]
# Experimental: as §4
# [8] = Renal (plasma) clearance at steady-state infusion in rats; assay type: in vivo; settings: steady-state co-infusion, average of three 10-min periods
# Experimental: Two male rats were anesthetized as described above and placed on a heated surgical table. Following tracheostomy, the left jugular vein was cannulated with two pieces of PE-50 tubing (one for infusion of radiopharmaceuticals and one to infuse normal saline (5.8 mL/h) to maintain hydration and additional anesthetic (5 mg/h) as necessary). The right carotid artery was cannulated for blood sampling and the bladder was catheterized by use of PE-50 tubing. The core temperature of each animal was continually monitored throughout the study using a rectal temperature probe. […] (3.7 MBq/mL [100 μCi/mL]) and ^131I-OIH (1.85 MBq/mL [50 μCi/mL]), were co-infused at a flow rate of 1.7 ml/h for 60 mins to establish steady-state blood levels. […] The blood samples were centrifuged for 15 mins and plasma samples were obtained. Plasma clearance (CI) was determined by utilizing the equation: CI (mL/min)=UV/P, where U is the urine radioactivity concentration, V is the urine volume excreted per minute and P is the plasma radioactivity concentration.
# erythrocytes = test: Erythrocyte uptake, rat blood; assay type: in vitro ADME; settings: rats
# Experimental: (§1) Arterial blood samples were placed in capillary tubes and centrifuged to determine the hematocrit. Samples of the whole blood and packed cells (about 0.3 mL each) were pipetted into counting tubes, weighed, and counted. The percent uptake in the erythrocytes was calculated from the whole blood (counts/g) and packed cells (counts/g). Percent erythrocyte uptake=[(counts/g in erythrocytes×hematocrit)/counts/g in whole blood]. No correction was made for plasma trapped in the red blood cells sample. PPB and erythrocyte uptake were calculated in duplicate and the mean values reported.
# plasma protein [9] = test: Plasma protein binding in healthy volunteers; assay type: in vitro ADME, human; settings: normal volunteers, individual values and mean
# plasma protein [10] = test: Plasma protein binding by ultrafiltration, rat plasma; assay type: in vitro ADME; settings: rats
# Experimental: as §1
# [11] = Renal extraction fraction in rats (arterial vs renal venous plasma); assay type: in vivo
# Experimental: The extraction fraction (EF) was measured at the conclusion of the clearance measurements by obtaining a left renal venous blood sample (0.5 mL) followed immediately by a carotid artery sample (3 mL). Both blood samples were centrifuged immediately after collection to obtain plasma samples. EF was calculated by measuring the difference between the arterial and venous plasma sample: EF=(arterial concentration−venous concentration)/arterial concentration.
# [12] = normal volunteers
# [13] = Biodistribution in rats with renal pedicle ligation (renal failure model), Group B; assay type: in vivo, Sprague-Dawley rats; settings: 60 min
# Experimental: (§2) Rats in both groups were anesthetized with ketamine-xylazine (2 mg/kg of body weight) injected intramuscularly, with additional supplemental anesthetic as needed. In the first group of ten normal rats (Group A), the bladder was catheterized by use of heat-flared PE-50 tubing. In the second group of six rats (Group B), the abdomen was open by a midline incision and both renal pedicles were ligated to produce a model of renal failure; thus no urine was collected.
# (§3) One additional aliquot (0.2 mL) for each time point was diluted to 100 mL, and three 1-mL portions of the resulting solution were used as standards.
# The 6 Group B rats were sacrificed 60 mins after injection. Selected organs, blood, and all of the small and large intestines were collected and counted as described above. The percentage injected dose reported for the bowel was based on the combined counts in the small and large intestines.
# [14] = Biodistribution in normal rats, Group A (Example 7, Table 3); assay type: in vivo, Sprague-Dawley rats; settings: for Percent injected dose in bowel: duodenum and colon samples; for Percent injected dose in blood: normal rats Group A, n=5
# Experimental: as §2, §3
# In Group A, 5 animals were sacrificed at 10 min, and 5 animals were sacrificed at 60 mins after injection. A blood sample was obtained, and the kidneys, heart, lungs, spleen, whole stomach and sections of the duodenum and ascending colon were removed and placed in counting vials. The whole liver was weighed, and random sections were obtained for counting. Samples of blood and urine were also placed in counting vials and weighed. […] The percentage of the dose in each tissue or organ was calculated by dividing the counts in each tissue or organ by the total injected counts. The percentage injected dose reported for the bowel was based on the combined counts of the duodenum and colon samples.
# red blood cells [15] = settings: human blood, equilibrium conditions; cited from earlier work
# [16] = Biodistribution in Sprague-Dawley rats, percentage of injected dose (Example 6, Table 1); assay type: in vivo; settings: for Percentage of injected dose in bowel: combined stomach and intestine
# Experimental: Five samples for the 10 mins study, and six samples for the 60 mins study were used; the one sample for each time point was diluted to 100 ml, and three 1-ml portions of the resulting solution were used as standards. Each rat was anesthetized with ketamine-xylazine (2 mg/kg of body weight) injected intramuscularly, with additional supplemental anesthetic as needed. The bladder was catheterized by use of heat-flared PE-50 tubing (Becton, Dickinson and Co.) for urine collection.
# A blood sample was obtained, and the heart, lungs, spleen, liver, intestines, stomach, and kidneys were removed. The whole liver was weighed, and random sections were obtained for counting. Blood, urine, whole organs, and tissue samples were placed in tubes, and each sample was weighed. […] The percentage of the dose in each tissue or organ was calculated by dividing the counts in each tissue or organ by the total injected counts, using reference counts from an accurately diluted sample of the original injection. The value given for the bowel represented combined stomach and intestine activities.
# [17] = cited from earlier work; remark: listed apart in the source
# [18] = eight human volunteers, single ingested dose of 10 mg; cited from earlier work
# [19] = humans, cited from earlier work
# [20] = background statement; cited from earlier work
# plasma protein [21] = settings: rats, cited from earlier work
# [22] = cited from earlier work; remark: listed apart in the source
# [23] = normal volunteers; cited from earlier work
compound,measurement,setting,value
technetium-99m tricarbonyl-nitrilotriacetic acid [^99mTc(CO)3(NTA)],"Toxicity (blood pressure, heart rate, temperature, CBC, chemistry panel, urine analysis)",[1],no evidence of any toxicity
same,"Plasma clearance, Cl",[2],480 mL/min
same,"Plasma clearance, Cl",[2]; listed as 99mTc-NTA,477.1 mL/min and 607.9 mL/min and 388.5 mL/min and 434.2 mL/min and 491.8 mL/min
same,"Plasma clearance, Cl","[2]; listed as 99mTc-NTA, mean",479.90 mL/min
same,RBC (red cell uptake),red blood cells [3],12%
same,RBC (red cell uptake),red blood cells [3]; listed as 99mTc-NTA,6% and 15% and 20% and 16% and 4%
same,RBC (red cell uptake),"red blood cells [3]; listed as 99mTc-NTA, mean",12%
same,pKa of the pendant carboxylic acid,[4],approximately 3
same,Stability to cysteine and histidine challenge,[5],no degradation
same,Clearance relative to PAH (PAH assigned 100%),[6],about 90%
same,Stability at physiological pH,[7],stable for 24 h
same,Plasma clearance,[8],3.08 mL/min/100 g
same,Erythrocyte (red cell) uptake,erythrocytes; listed as Na2[^99mTc(CO)3(NTA)],7±2% and 7%
same,PPB (plasma protein binding),plasma protein [9],45%
same,PPB (plasma protein binding),plasma protein [9]; listed as 99mTc-NTA,39% and 40% and 50% and 42% and 53%
"O=C(O)CNC(=O)c1ccccc1[131I] [^131I-OIH, ^131I-ortho-iodohippurate]",Plasma protein binding,plasma protein [10],44±10%
same,Extraction fraction,[11],67.9±6.1% and 67.9%
same,"Plasma clearance, Cl",[2],482 mL/min and 423.4 mL/min and 433.4 mL/min and 481.94 mL/min and 497.49 mL/min and 442 mL/min and 613.4 mL/min
same,Urine 30 min (percent dose excreted),[12]; 30 minutes,80% and 74% and 78% and 55% and 64%
same,Urine (percent dose in urine),"[12]; collection time not given (voids at 30, 90, 180 min)",98% and 93% and 96% and 83% and 81%
same,RBC (red cell uptake),red blood cells [3],20% and 15% and 21% and 25% and 24% and 14%
same,Percent injected dose in kidney,[13]; Group B,0.8 ± 0.2%
same,Percent injected dose in liver,[13]; Group B,9.7 ± 1.7%
same,Percent injected dose in bowel,"[13]; Group B, small and large intestines",14.6% and 14.6 ± 2.8%
same,Percent injected dose in blood,"[13]; renal pedicle ligation Group B, n=6",15.1% and 15.1 ± 0.9%
same,Clearance relative to PAH (PAH assigned 100%),[6],about 90%
same,Plasma clearance,[8],2.96 mL/min/100 g
same,Percent injected dose in kidney,"[14]; Group A, 10 min",5.6 ± 0.6%
same,Percent injected dose in liver,"[14]; Group A, 10 min",4.0 ± 0.7%
same,Percent injected dose in urine,"[14]; Group A, 10 min",53.2 ± 7.2%
same,Percent injected dose in bowel,"[14]; Group A, 10 min",2.2 ± 0.4%
same,"Mean total injected activity present in heart, lungs, spleen, blood and liver","[14]; Group A, 60 min",1.1%
same,Percent injected dose in kidney,"[14]; Group A, 60 min",0.5 ± 0.0%
same,Percent injected dose in liver,"[14]; Group A, 60 min",0.6 ± 0.3%
same,Percent injected dose in urine,"[14]; Group A, 60 min",91.4 ± 3.7%
same,Percent injected dose in bowel,"[14]; Group A, 60 min",1.0 ± 0.5%
same,Percent injected dose in blood,[14]; 10 min,5.6 ± 1.0%
same,Percent injected dose in blood,[14]; 60 min,0.5 ± 0.0%
same,Erythrocyte (red cell) uptake,erythrocytes,35±1% and 35%
same,PPB (plasma protein binding),plasma protein [9],77% and 74% and 79%
same,Fraction bound to or inside red blood cells,red blood cells [15],15-20%
same,Percentage of injected dose in heart,[16]; 10 min,0.2 ± 0.1%
same,Percentage of injected dose in kidney,[16]; 10 min,5.6 ± 0.6%
same,Percentage of injected dose in liver,[16]; 10 min,4.0 ± 0.7%
same,Percentage of injected dose in lung,[16]; 10 min,0.5 ± 0.2%
same,Percentage of injected dose in urine,[16]; 10 min,53.2 ± 7.2%
same,Percentage of injected dose in bowel,[16]; 10 min,2.5 ± 0.5%
same,Percentage of injected dose in blood,"[16]; 10 min post-injection, n=5",5.6 ± 1.0%
same,Percentage of injected dose in heart,[16]; 60 min,0.0 ± 0.0%
same,Percentage of injected dose in kidney,[16]; 60 min,0.5 ± 0.0%
same,Percentage of injected dose in liver,[16]; 60 min,0.7 ± 0.2%
same,Percentage of injected dose in lung,[16]; 60 min,0.1 ± 0.1%
same,Percentage of injected dose in urine,[16]; 60 min,91.4 ± 3.7%
same,Percentage of injected dose in bowel,[16]; 60 min,1.7 ± 0.7%
same,Percentage of injected dose in blood,"[16]; 60 min post-injection, n=6",0.5 ± 0.0%
"O=C(O)CN(CC(=O)O)CC(=O)O [NTA, nitrilotriacetic acid]",Acceptable daily intake in drinking water (Health Canada),"[17]; based on two-year rat studies, nephrotoxic no-observed-adverse-effect level",10 μg/kg bw per day
same,Dose inducing urinary tract tumors,"[17]; rats and mice, two years",about 840 mg/kg bw per day
same,"Adverse effects (physical examination, blood chemistry, urinalysis)",[18],no evidence of adverse effects
"O=C([O-])CN=C([O-])CN=C([O-])CN=C([O-])C[S-].[O-2].[Tc+4] [^99mTc-MAG3, technetium-99m mercaptoacetyltriglycine]",Clearance as multiple of the clearance of 99mTc-DTPA,[19],2-2.5 times
same,Clearance relative to PAH (PAH assigned 100%),[6],substantially less than that of PAH
same,Clearance relative to PAH (PAH assigned 100%),[6]; listed as 99mTcMAG3,substantially less
same,Extraction fraction (EF),[20],50-60%
same,Protein binding,plasma protein [21]; before infusion,78%
same,Protein binding,plasma protein [21]; following PAH infusion,44%
same,Protein binding,plasma protein [21]; following ammonium chloride infusion,63%
same,Protein binding,plasma protein [21]; following mannitol infusion,42%
same,Protein binding,plasma protein [21]; following sodium bicarbonate infusion,65%
same,Hepatobiliary clearance,[22]; fasting rats,11.7%
same,Hepatobiliary clearance,[22]; rats with free access to food,6.6%
same,Injected dose transported into the small intestine via the hepatobiliary system,[23],0.5-1.0%
O=C([O-])CN(CCN(CC(=O)[O-])CC(=O)[O-])CCN(CC(=O)[O-])CC(=O)[O-].[99Tc+4] [^99mTc-DTPA],Extraction fraction (EF),[20],20%
^99mTc-DD-ethylene dicysteine,Clearance as percent of that of PAH,[19]; literature,60-65%
